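Assay format: 96-well plates, 48-hour exposure. Here, GI50 denotes the concentration required for 50% inhibition of growth. TGI: total growth inhibition.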
Tests used:
Test in all cases: NCI anticancer screen, dose series, 48 h
[1] = tested on: DU-145 prostate
[2] = tested on: HOP-62 NSCLC
[3] = tested on: IGROV1 ovarian
[4] = tested on: K-562 leukemia
[5] = tested on: MALME-3M melanoma
[6] = tested on: NCI-H23 lung
[7] = tested on: SR leukemia
[8] = tested on: SW-620 colon
[9] = tested on: TK-10 renal
[10] = tested on: UO-31 renal

Compound	TGI [1] [µM]	TGI [2] [µM]	TGI [3] [µM]	TGI [4] [µM]	TGI [5] [µM]	TGI [6] [µM]	TGI [7] [µM]	TGI [8] [µM]	TGI [9] [µM]	TGI [10] [µM]	GI50 [1] [nM]	GI50 [2] [nM]	GI50 [3] [µM]	GI50 [4] [nM]	GI50 [5] [nM]	GI50 [6] [µM]	GI50 [7] [nM]	GI50 [8] [nM]	GI50 [9] [µM]	GI50 [10] [nM]
O=c1[nH]nc(-c2ccc([N+](=O)[O-])cc2)n1/N=C/c1ccc([N+](=O)[O-])cc1	> 100	> 100	> 100	> 100	> 100	> 100	> 100	> 100	> 100	> 100										
CCOP(=O)(CC1CC(O)(CNc2cc(Cl)nc(N)n2)C1)OCC (stereo not given)	> 100	> 100	> 100	> 100	> 100	> 100	> 100	> 100	> 100	> 100										
CCN(CC)c1ccc(/C=c2\nc(-c3ccccc3)n3c2nc2ccccc23)cc1	> 100	68.6	> 100	> 100	52.3	> 100	> 100	> 100	> 100	> 100										
N#CCN1CCCCCc2ccccc21	> 100	> 100	> 100	> 100	> 100	> 100	> 100	> 100	> 100	> 100										
N#Cc1nc(C(F)(F)F)oc1N	> 100	> 100	> 100	> 100	> 100	> 100	> 100	> 100	> 100	> 100										
Nc1nc2cc(CNc3ccc(C(=O)O)cc3)ccc2nc1-c1ccccc1	> 100	> 100	> 100	> 100	> 100	> 100	> 100	> 100	> 100	> 100										
COc1ccc2c(c1)C1Oc3ccccc3CC1(O)CO2 (stereo not given)	> 100	> 100	> 100	> 100	> 100	> 100	> 100	> 100	> 100	> 100										
O=C1C(Cl)=C(Oc2ccc([N+](=O)[O-])cc2)C(=O)c2c(O)ccc(O)c21	> 100	> 100	> 100	40.3	40.1	> 100	16.1	> 80.9	> 94	> 100										
COc1cc(CCNC2=CC(=O)c3cccnc3C2=O)ccc1O	3.11	2.86	4.3	2.15	2.32	4.65	12.2	2.94	30.5	2.83										
N#Cc1ccc(OC(=O)c2ccc(N=C(N)N)cc2)cc1	> 100	> 100	> 100	> 100	> 100	> 100	> 100	> 100	> 100	> 100										
COC(=O)c1c(O)ccc2c1c1c(n2Cc2ccc(OC)cc2)C(=O)c2ccccc2C1=O	52.5	33.2	21.4	20	64.3	32.2	2.92	45.6	> 100	29.2										
C=C(C)[C@@H]1CC[C@]2(CO)CC[C@]3(C)[C@H](CC[C@@H]4[C@@]5(C)CC[C@H](O)C(C)(C)[C@@H]5CC[C@]43C)[C@@H]12	> 100	42.1	> 100	> 100	> 100	> 100	> 100	43.5	38	26										
CN(C)NC1=NS(=O)(=O)c2cc3c(cc2S1)N(N(C)C)C(=O)c1cc2c(cc1N(N(C)C)C3=O)SC(NN(C)C)=NS2(=O)=O	> 10	> 10	> 10	> 10	> 10	> 10	> 10	> 10	> 10	> 10										
O=C(O)CS(=O)c1ccc2c3c(cccc13)C(=O)c1ccccc1-2 (stereo not given)	> 100	> 100	> 100	> 100	> 100	> 100	> 100	> 100	> 100	> 100										
O=C1OC(C2Cc3ccccc3C2=O)c2ccccc21 (stereo not given)	> 100	> 100	> 100	> 100	> 100	> 100	> 100	> 100	> 100	> 100										
O=C(O)C(F)(F)C(F)(F)C(F)(F)C(F)(F)C(=O)O	> 100	> 100	> 100	> 100	> 100	> 100	> 100	> 100	> 100	> 100										
Cc1ccc(C2(N3CCCC3)OC(C)(C)c3cccc4cccc2c34)cc1 (stereo not given)	32.8	32.3	29.8	> 100	41.4	29.9	67.6	30.9	38.6	28.3										
O=S(=O)(O)c1ccc2c(N=Nc3ccccc3)c(O)c(S(=O)(=O)O)cc2c1	> 100	> 100	> 100	> 100	> 100	> 100	> 100	> 100	> 100	> 100										
COc1ccc2c(c1)c(=O)c1c(NCCCN(C)CCCNc3ccc4c(=O)n(CCN(C)C)c(=O)n5c6ccc(OC)cc6c(=O)c3c45)ccc3c(=O)n(CCN(C)C)c(=O)n2c31	1.18	1.04	0.584	1.11	2.42	0.704	0.255	0.752	6.6	1.01										
Cc1ccccc1C(=O)C#Cc1cn(C2CC(O)C(CO)O2)c(=O)[nH]c1=O (stereo not given)	> 100	> 100	> 100	> 100	35.1	> 100	> 100	> 100	> 100	> 100										
COc1ccc(OC)c(C(=O)/C=C/c2cc(O)c(O)cc2F)c1	15.1	29.2	34.2	> 27.8	27.4	10.4	4.62	> 66.5	21.6	28.7										
O=C(Nc1ccc(-n2cc(-c3ccncc3)c(-c3ccc(O)c(Cl)c3)n2)cc1)c1cc(Cl)cc(Cl)c1	> 32.5	> 32.5	> 32.5	> 32.5	> 32.5	> 32.5	> 32.5	> 32.5	> 32.5	> 32.5	2170	2870	> 32.5	1020	2660	12.1	1360	2210	6.8	1620
N#Cc1ccc(/C=N/NC(=O)CSCC(=O)N/N=C/c2ccc(C#N)cc2)cc1	> 100	> 100	> 100	> 100	> 100	> 100	> 100	> 100	> 100	> 100										
Cc1ccc2ccc(=O)oc2c1	> 100	> 100	> 100	> 100	> 100	> 100	> 100	> 100	> 100	> 100										
Cc1ccc(C(=O)Cc2nc3ncccc3[nH]c2=O)cc1	> 100	48.4	> 100	> 100	72.3	42.3	> 100	> 100	57.4	> 100										
O=C(O)CCC(C(=O)O)N1C(=O)c2ccccc2C1=O (stereo not given)	> 100	> 100	> 100	> 100	> 100	> 100	> 100	> 100	> 100	> 100										
O=C1C=C(N2CCCC2)C(=O)c2c(O)ccc(O)c21	> 10	> 10	> 10	> 10	> 10	> 1	> 1	> 10	> 10	> 10										
COC(=O)c1ccc(CCC2=CC(=O)C(Br)=CC2=O)cc1	32	31.6	28.7	4.84	30.6	28.4	> 100	27.1	31.1	29.2										
